Measurements: publication PMC5421785, “Citrullination only infrequently impacts peptide binding to HLA class II MHC” (PLoS ONE, 2017)
Like-named read-outs stand apart in the source and are kept apart here. Square brackets hold non-standard residues; d marks the D form. Peptide text beside a SMILES is read from it. Cit = NC(=O)NCCC[C@H](N)C(=O)O

What was measured:
HLA-DRB1*04:01 = target: T1, HLA-DRB1*04:01 (Homo sapiens, UniProt P01903+P01911, A100K/A169T/F76Y/I96L/K127E/L162R/M171V/N62H/P40V/Q125Y/R42H/S133A/S149N/S66Y/V115G/V209L/W38E); experiment: HLA class II peptide binding, inhibition of radiolabeled peptide binding to purified MHC; details: read-out: DRB1*04:01 binding capacity, Cit peptide (IC50 nM)
T1 construct: EBV transformed homozygous cell lines were used as sources of MHC molecules; endogenous in cells; host or cells: EBV transformed homozygous cell lines

HLA-DRB1*01:01 = target: T2, HLA-DRB1*01:01 (Homo sapiens, UniProt P01903+P01911, A100R/D57E/F55L/F60I/F76Y/I96L/L162R/M171V/P40L/Q125E/R42F/V115G/Y59C); experiment: as above; details: read-out: DRB1*01:01 binding capacity, Cit peptide (IC50 nM)
T2 construct: EBV transformed homozygous cell lines were used as sources of MHC molecules; endogenous in cells; host or cells: EBV transformed homozygous cell lines

[1] = citrullinated 15-mer (X), purified MHC, inhibition of radiolabeled peptide binding, dash = IC50 >40,000 nM
[2] = citrullinated 15-mer peptide (X = citrulline), purified HLA-DRB1*04:01
[3] = citrullinated 15-mer peptide (X = citrulline), purified HLA-DRB1*01:01

SMILES | IC50 (HLA-DRB1*04:01; [1]) [nM] | IC50 (HLA-DRB1*01:01; [1]) [nM] | IC50 (HLA-DRB1*04:01; [2]) [nM] | IC50 (HLA-DRB1*01:01; [3]) [nM]
CSCC[C@H](NC(=O)[C@H](CCC(=O)O)NC(=O)[C@H](CCC(=O)O)NC(=O)[C@@H](N)CCC(=O)O)C(=O)N[C@@H](CCCNC(=N)N)C(=O)N[C@@H](CCC(=O)O)C(=O)N[C@@H](CC(C)C)C(=O)N[C@@H](CCCNC(N)=O)C(=O)N[C@@H](CCCNC(=N)N)C(=O)N[C@@H](CCC(N)=O)C(=O)N[C@H](C(=O)N[C@@H](CC(=O)O)C(=O)N[C@@H](CCC(N)=O)C(=O)N[C@@H](CC(C)C)C(=O)N[C@H](C(=O)O)[C@@H](C)O)C(C)C [EEEMRELXRQVDQLT] (H-EEEMREL[Cit]RQVDQLT-OH) | 4740 | 1490 | – | –
CSCC[C@H](NC(=O)[C@H](CCC(=O)O)NC(=O)[C@H](CCC(=O)O)NC(=O)[C@@H](N)CCC(=O)O)C(=O)N[C@@H](CCCNC(N)=O)C(=O)N[C@@H](CCC(=O)O)C(=O)N[C@@H](CC(C)C)C(=O)N[C@@H](CCCNC(=N)N)C(=O)N[C@@H](CCCNC(=N)N)C(=O)N[C@@H](CCC(N)=O)C(=O)N[C@H](C(=O)N[C@@H](CC(=O)O)C(=O)N[C@@H](CCC(N)=O)C(=O)N[C@@H](CC(C)C)C(=O)N[C@H](C(=O)O)[C@@H](C)O)C(C)C [EEEMXELRRQVDQLT] (H-EEEM[Cit]ELRRQVDQLT-OH) | 6570 | 1250 | – | –
CSCC[C@H](NC(=O)[C@H](CCC(=O)O)NC(=O)[C@@H](N)CCC(=O)O)C(=O)N[C@@H](CC(C)C)C(=O)N[C@@H](CCC(N)=O)C(=O)N[C@@H](CCCNC(N)=O)C(=O)N[C@@H](CCC(=O)O)C(=O)N[C@@H](CCC(=O)O)C(=O)N[C@@H](C)C(=O)N[C@@H](CCC(=O)O)C(=O)N[C@@H](CC(N)=O)C(=O)N[C@H](C(=O)N[C@@H](CC(C)C)C(=O)N[C@@H](CCC(N)=O)C(=O)N[C@@H](CO)C(=O)O)[C@@H](C)O [EEMLQXEEAENTLQS] (H-EEMLQ[Cit]EEAENTLQS-OH) | 14000 | 869 | – | –
CC[C@H](C)[C@H](NC(=O)[C@@H](N)CCC(=O)O)C(=O)N[C@@H](C)C(=O)N[C@H](C(=O)N[C@@H](Cc1ccc(O)cc1)C(=O)N[C@@H](CCCNC(=N)N)C(=O)N[C@@H](CCCCN)C(=O)N[C@@H](CC(C)C)C(=O)N[C@@H](CC(C)C)C(=O)N[C@@H](CCC(=O)O)C(=O)NCC(=O)N[C@@H](CCC(=O)O)C(=O)N[C@@H](CCC(=O)O)C(=O)N[C@@H](CO)C(=O)N[C@@H](CCCNC(N)=O)C(=O)O)[C@@H](C)O [EIATYRKLLEGEESX] (H-EIATYRKLLEGEES[Cit]-OH) | – | – | 4300 | 470
CC[C@H](C)[C@H](NC(=O)[C@@H](N)CCC(=O)O)C(=O)N[C@@H](C)C(=O)N[C@H](C(=O)N[C@@H](Cc1ccc(O)cc1)C(=O)N[C@@H](CCCNC(N)=O)C(=O)N[C@@H](CCCCN)C(=O)N[C@@H](CC(C)C)C(=O)N[C@@H](CC(C)C)C(=O)N[C@@H](CCC(=O)O)C(=O)NCC(=O)N[C@@H](CCC(=O)O)C(=O)N[C@@H](CCC(=O)O)C(=O)N[C@@H](CO)C(=O)N[C@@H](CCCNC(=N)N)C(=O)O)[C@@H](C)O [EIATYXKLLEGEESR] (H-EIATY[Cit]KLLEGEESR-OH) | – | – | 3810 | 360
CC[C@H](C)[C@H](NC(=O)[C@H](Cc1ccc(O)cc1)NC(=O)[C@H](CC(N)=O)NC(=O)[C@H](C)NC(=O)[C@H](Cc1ccccc1)NC(=O)[C@H](CCCNC(N)=O)NC(=O)[C@H](CC(=O)O)NC(=O)[C@H](CC(N)=O)NC(=O)[C@H](CC(C)C)NC(=O)[C@H](CCC(=O)O)NC(=O)[C@H](CCC(N)=O)NC(=O)[C@H](CC(C)C)NC(=O)[C@@H](N)CCC(=O)O)C(=O)N[C@@H](CC(=O)O)C(=O)N[C@@H](CCCCN)C(=O)O [ELQELNDXFANYIDK] | 26700 | 295 | – | –
CC(C)C[C@H](NC(=O)[C@H](CCC(N)=O)NC(=O)[C@H](CC(=O)O)NC(=O)[C@@H](NC(=O)[C@H](CCC(N)=O)NC(=O)[C@H](CCCNC(=N)N)NC(=O)[C@H](CCCNC(=N)N)NC(=O)[C@H](CC(C)C)NC(=O)[C@@H](N)CCC(=O)O)C(C)C)C(=O)N[C@H](C(=O)N[C@@H](CC(N)=O)C(=O)N[C@@H](CC(=O)O)C(=O)N[C@@H](CCCCN)C(=O)N[C@@H](C)C(=O)N[C@@H](CCCNC(N)=O)C(=O)O)[C@@H](C)O [ELRRQVDQLTNDKAX] (H-ELRRQVDQLTNDKA[Cit]-OH) | 8090 | 1160 | – | –
CC(C)C[C@H](NC(=O)[C@H](CCC(N)=O)NC(=O)[C@H](CC(=O)O)NC(=O)[C@@H](NC(=O)[C@H](CCC(N)=O)NC(=O)[C@H](CCCNC(N)=O)NC(=O)[C@H](CCCNC(=N)N)NC(=O)[C@H](CC(C)C)NC(=O)[C@@H](N)CCC(=O)O)C(C)C)C(=O)N[C@H](C(=O)N[C@@H](CC(N)=O)C(=O)N[C@@H](CC(=O)O)C(=O)N[C@@H](CCCCN)C(=O)N[C@@H](C)C(=O)N[C@@H](CCCNC(=N)N)C(=O)O)[C@@H](C)O [ELRXQVDQLTNDKAR] (H-ELR[Cit]QVDQLTNDKAR-OH) | 11000 | 2240 | – | –
CC(C)C[C@H](NC(=O)[C@H](CCC(N)=O)NC(=O)[C@H](CC(=O)O)NC(=O)[C@@H](NC(=O)[C@H](CCC(N)=O)NC(=O)[C@H](CCCNC(=N)N)NC(=O)[C@H](CCCNC(N)=O)NC(=O)[C@H](CC(C)C)NC(=O)[C@@H](N)CCC(=O)O)C(C)C)C(=O)N[C@H](C(=O)N[C@@H](CC(N)=O)C(=O)N[C@@H](CC(=O)O)C(=O)N[C@@H](CCCCN)C(=O)N[C@@H](C)C(=O)N[C@@H](CCCNC(=N)N)C(=O)O)[C@@H](C)O [ELXRQVDQLTNDKAR] (H-EL[Cit]RQVDQLTNDKAR-OH) | 13400 | 614 | – | –
CSCC[C@H](NC(=O)[C@@H]1CCCN1C(=O)CNC(=O)[C@@H]1CCCN1C(=O)[C@H](CO)NC(=O)CNC(=O)[C@H](CC(N)=O)NC(=O)[C@@H](N)CCC(=O)O)C(=O)NCC(=O)N1CCC[C@H]1C(=O)N[C@@H](CCCNC(N)=O)C(=O)NCC(=O)N[C@@H](CC(C)C)C(=O)N1CCC[C@H]1C(=O)NCC(=O)O [ENGSPGPMGPXGLPG] (H-ENGSPGPMGP[Cit]GLPG-OH) | – | – | > 40000 | 31400
CC(C)C[C@H](NC(=O)[C@H](CCCNC(N)=O)NC(=O)[C@H](CO)NC(=O)[C@H](CCCCN)NC(=O)CNC(=O)[C@H](CCC(N)=O)NC(=O)CNC(=O)[C@H](CCCCN)NC(=O)[C@H](CC(C)C)NC(=O)[C@H](CCC(N)=O)NC(=O)[C@@H](N)CCC(=O)O)C(=O)NCC(=O)N[C@@H](CC(=O)O)C(=O)N[C@@H](CC(C)C)C(=O)N[C@@H](Cc1ccc(O)cc1)C(=O)O [EQLKGQGKSXLGDLY] | > 40000 | 5380 | – | –
C[C@H](NC(=O)CNC(=O)[C@H](C)NC(=O)[C@@H]1CCCN1C(=O)CNC(=O)[C@@H](NC(=O)[C@H](CCCNC(=N)N)NC(=O)CNC(=O)[C@H](CCCNC(=N)N)NC(=O)[C@@H](N)CCC(=O)O)[C@@H](C)O)C(=O)N[C@@H](C)C(=O)NCC(=O)N[C@@H](C)C(=O)N[C@@H](CCCNC(N)=O)C(=O)NCC(=O)O [ERGRTGPAGAAGAXG] (H-ERGRTGPAGAAGA[Cit]G-OH) | – | – | > 40000 | 1120
C[C@H](NC(=O)CNC(=O)[C@H](C)NC(=O)[C@@H]1CCCN1C(=O)CNC(=O)[C@@H](NC(=O)[C@H](CCCNC(N)=O)NC(=O)CNC(=O)[C@H](CCCNC(=N)N)NC(=O)[C@@H](N)CCC(=O)O)[C@@H](C)O)C(=O)N[C@@H](C)C(=O)NCC(=O)N[C@@H](C)C(=O)N[C@@H](CCCNC(=N)N)C(=O)NCC(=O)O [ERGXTGPAGAAGARG] (H-ERG[Cit]TGPAGAAGARG-OH) | – | – | > 40000 | 3910
